From the supplement of paper PMC10307832

Assays:
Assay in all cases: relative viability (nuclei count vs DMSO), 5 days (fraction); higher = more cells survive
NCI-H2126 = test system: NCI-H2126
Outline: (§1)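 Each reported value is a median over duplicate plates. It expresses relative viability: treated-well nuclei count divided by vehicle-well nuclei count. Lung cancer cell lines in 1536-well plates were dosed by pin tool a day after seeding, alone with one drug or with a fixed anchor-drug dose plus five library-drug doses (not always all listed) in √10 steps, and nuclei were counted after 5 days.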

LCLC-103H = test system: LCLC-103H
Outline: as §1

NCI-H1993 = test system: NCI-H1993
Outline: as §1

EMC-BAC-2 = test system: EMC-BAC-2
Outline: as §1

NCI-H3122 = test system: NCI-H3122
Outline: as §1

NCI-H23 = test system: NCI-H23
Outline: as §1

NCI-H596 = test system: NCI-H596
Outline: as §1

NCI-H650 = test system: NCI-H650
Outline: as §1

LOU-NH91 = test system: LOU-NH91
Outline: as §1

NCI-H647 = test system: NCI-H647
Outline: as §1

HARA = test system: HARA
Outline: as §1

NCI-H838 = test system: NCI-H838
Outline: as §1

201T = test system: 201T
Outline: as §1

NCI-H2087 = test system: NCI-H2087
Outline: as §1

NCI-H441 = test system: NCI-H441
Outline: as §1

NCI-H2347 = test system: NCI-H2347
Outline: as §1

NCI-H727 = test system: NCI-H727
Outline: as §1

NCI-H1395 = test system: NCI-H1395
Outline: as §1

NCI-H522 = test system: NCI-H522
Outline: as §1

NCI-H2023 = test system: NCI-H2023
Outline: as §1

BEN = test system: BEN
Outline: as §1

HCC-44 = test system: HCC-44
Outline: as §1

For Cc1sc2c(c1C)C(c1ccc(Cl)cc1)=N[C@@H](CC(=O)OC(C)(C)C)c1nnc(C)n1-2 [JQ1] + CC(=O)Nc1cccc(-n2c(=O)n(C3CC3)c(=O)c3c(Nc4ccc(I)cc4F)n(C)c(=O)c(C)c32)c1 [Trametinib] (partner 0.02 µM), the relative viability (NCI-H2126; first compound 0.04 µM) was 0.521, the relative viability (NCI-H2126; first compound 0.1265 µM) was 0.549 and the relative viability (NCI-H2126; first compound 0.4 µM) was 0.486. It also gave a relative viability (NCI-H2126; first compound 1.265 µM) of 0.368, a relative viability (NCI-H2126; first compound 4 µM) of 0.416 and a relative viability (LCLC-103H; first compound 0.04 µM) of 0.642. It also gave a relative viability (LCLC-103H; first compound 0.1265 µM) of 0.613, a relative viability (LCLC-103H; first compound 0.4 µM) of 0.534 and a relative viability (LCLC-103H; first compound 1.265 µM) of 0.477. The relative viability (LCLC-103H; first compound 4 µM) was 0.426, the relative viability (NCI-H1993; first compound 0.04 µM) was 0.465 and the relative viability (NCI-H1993; first compound 0.1265 µM) was 0.461. The relative viability (NCI-H1993; first compound 0.4 µM) was 0.541, the relative viability (NCI-H1993; first compound 1.265 µM) was 0.542 and the relative viability (NCI-H1993; first compound 4 µM) was 0.57. It also gave a relative viability (EMC-BAC-2; first compound 0.04 µM) of 0.935, a relative viability (EMC-BAC-2; first compound 0.4 µM) of 0.881 and a relative viability (EMC-BAC-2; first compound 1.265 µM) of 0.586. It also gave a relative viability (EMC-BAC-2; first compound 4 µM) of 0.366, a relative viability (NCI-H3122; first compound 0.04 µM) of 0.219 and a relative viability (NCI-H3122; first compound 0.1265 µM) of 0.179. It also gave a relative viability (NCI-H3122; first compound 0.4 µM) of 0.322, a relative viability (NCI-H3122; first compound 1.265 µM) of 0.317 and a relative viability (NCI-H3122; first compound 4 µM) of 0.304. The relative viability (NCI-H23; first compound 0.04 µM) was 0.348, the relative viability (NCI-H23; first compound 0.1265 µM) was 0.268 and the relative viability (NCI-H23; first compound 0.4 µM) was 0.256. The relative viability (NCI-H23; first compound 1.265 µM) was 0.201, the relative viability (NCI-H23; first compound 4 µM) was 0.173 and the relative viability (NCI-H596; first compound 0.04 µM) was 0.776. For the same molecule, the relative viability (NCI-H596; first compound 0.1265 µM) was 0.683, the relative viability (NCI-H596; first compound 0.4 µM) was 0.442 and the relative viability (NCI-H596; first compound 1.265 µM) was 0.338. It also gave a relative viability (NCI-H596; first compound 4 µM) of 0.31, a relative viability (NCI-H650; first compound 0.04 µM) of 0.852 and a relative viability (NCI-H650; first compound 0.1265 µM) of 0.812. For the same molecule, the relative viability (NCI-H650; first compound 0.4 µM) was 0.779, the relative viability (NCI-H650; first compound 1.265 µM) was 0.371 and the relative viability (NCI-H650; first compound 4 µM) was 0.275. For the same molecule, the relative viability (LOU-NH91; first compound 0.04 µM) was 0.774, the relative viability (LOU-NH91; first compound 0.1265 µM) was 0.719 and the relative viability (LOU-NH91; first compound 0.4 µM) was 0.603. It also gave a relative viability (LOU-NH91; first compound 1.265 µM) of 0.479, a relative viability (LOU-NH91; first compound 4 µM) of 0.414 and a relative viability (NCI-H647; first compound 0.04 µM) of 0.403. For the same molecule, the relative viability (NCI-H647; first compound 0.1265 µM) was 0.326, the relative viability (NCI-H647; first compound 0.4 µM) was 0.214 and the relative viability (NCI-H647; first compound 1.265 µM) was 0.126. The relative viability (NCI-H647; first compound 4 µM) was 0.0652, the relative viability (HARA; first compound 0.04 µM) was 0.72 and the relative viability (HARA; first compound 0.1265 µM) was 0.411. It also gave a relative viability (HARA; first compound 0.4 µM) of 0.174, a relative viability (HARA; first compound 1.265 µM) of 0.184 and a relative viability (HARA; first compound 4 µM) of 0.304. For the same molecule, the relative viability (NCI-H838; first compound 0.04 µM) was 0.521, the relative viability (NCI-H838; first compound 0.1265 µM) was 0.267 and the relative viability (NCI-H838; first compound 0.4 µM) was 0.375. It also gave a relative viability (NCI-H838; first compound 1.265 µM) of 0.293, a relative viability (NCI-H838; first compound 4 µM) of 0.202 and a relative viability (201T; first compound 0.04 µM) of 0.72. The relative viability (201T; first compound 0.4 µM) was 0.538, the relative viability (201T; first compound 1.265 µM) was 0.505 and the relative viability (201T; first compound 4 µM) was 0.391. For the same molecule, the relative viability (NCI-H2087; first compound 0.04 µM) was 0.192, the relative viability (NCI-H2087; first compound 0.1265 µM) was 0.179 and the relative viability (NCI-H2087; first compound 0.4 µM) was 0.18. It also gave a relative viability (NCI-H2087; first compound 1.265 µM) of 0.142, a relative viability (NCI-H2087; first compound 4 µM) of 0.167 and a relative viability (NCI-H441; first compound 0.04 µM) of 0.476. The relative viability (NCI-H441; first compound 0.1265 µM) was 0.377, the relative viability (NCI-H441; first compound 0.4 µM) was 0.31 and the relative viability (NCI-H441; first compound 1.265 µM) was 0.175. It also gave a relative viability (NCI-H441; first compound 4 µM) of 0.169, a relative viability (NCI-H2347; first compound 0.04 µM) of 0.275 and a relative viability (NCI-H2347; first compound 0.1265 µM) of 0.294. For the same molecule, the relative viability (NCI-H2347; first compound 0.4 µM) was 0.276, the relative viability (NCI-H2347; first compound 1.265 µM) was 0.24 and the relative viability (NCI-H2347; first compound 4 µM) was 0.258. For the same molecule, the relative viability (NCI-H727; first compound 0.04 µM) was 0.403, the relative viability (NCI-H727; first compound 0.1265 µM) was 0.421 and the relative viability (NCI-H727; first compound 0.4 µM) was 0.381. For the same molecule, the relative viability (NCI-H727; first compound 1.265 µM) was 0.365, the relative viability (NCI-H727; first compound 4 µM) was 0.401 and the relative viability (NCI-H1395; first compound 0.04 µM) was 1.03. It also gave a relative viability (NCI-H1395; first compound 0.1265 µM) of 0.991, a relative viability (NCI-H1395; first compound 0.4 µM) of 0.912 and a relative viability (NCI-H1395; first compound 1.265 µM) of 0.628. For the same molecule, the relative viability (NCI-H1395; first compound 4 µM) was 0.578, the relative viability (NCI-H522; first compound 0.04 µM) was 0.767 and the relative viability (NCI-H522; first compound 0.1265 µM) was 0.631. The relative viability (NCI-H522; first compound 0.4 µM) was 0.485, the relative viability (NCI-H522; first compound 1.265 µM) was 0.482 and the relative viability (NCI-H522; first compound 4 µM) was 0.447. The relative viability (NCI-H2023; first compound 0.04 µM) was 0.472, the relative viability (NCI-H2023; first compound 0.1265 µM) was 0.394 and the relative viability (NCI-H2023; first compound 0.4 µM) was 0.248. It also gave a relative viability (NCI-H2023; first compound 1.265 µM) of 0.162, a relative viability (NCI-H2023; first compound 4 µM) of 0.137 and a relative viability (BEN; first compound 0.04 µM) of 1.05. For the same molecule, the relative viability (BEN; first compound 0.1265 µM) was 0.829, the relative viability (BEN; first compound 0.4 µM) was 0.557 and the relative viability (BEN; first compound 1.265 µM) was 0.481. The relative viability (BEN; first compound 4 µM) was 0.41, the relative viability (HCC-44; first compound 0.04 µM) was 1.02 and the relative viability (HCC-44; first compound 0.1265 µM) was 1.09. It also gave a relative viability (HCC-44; first compound 0.4 µM) of 0.766, a relative viability (HCC-44; first compound 1.265 µM) of 0.649 and a relative viability (HCC-44; first compound 4 µM) of 0.493.
